Data reported in ChEMBL document CHEMBL4507295 (2021).

Assays:
[1] = molecular target: Voltage-dependent N-type calcium channel subunit alpha-1B (Homo sapiens) (UniProt Q00975); assay: Inhibition of Calcium Channel N-Type at 10 µM in the Eurofins-Panlabs radioligand binding assay (Eurofins_assay_216000); conditions: Rattus norvegicus; Compound concentration 10.0 uM
[2] = molecular target: Glutamate receptor ionotropic, kainate (Rattus norvegicus) (UniProt P22756+Q01812+P42260+P42264+Q63273); assay: Inhibition of Glutamate, Kainate at 10 µM in the Eurofins-Panlabs radioligand binding assay (Eurofins_assay_232700); conditions: Compound concentration 10.0 uM
[3] = molecular target: Cysteinyl leukotriene receptor 1 (Homo sapiens) (UniProt Q9Y271); assay: Inhibition of Leukotriene, Cysteinyl CysLT1 at 10 µM in the Eurofins-Panlabs radioligand binding assay (Eurofins_assay_250460); set-up: ligand concentration 0.3 nM, non-specific ligand with concentration 0.3 µM Leukotriene D4, incubation time 30 min, incubation temperature 25 °C; conditions: Compound concentration 10.0 uM
Caspase-1 (Homo sapiens) = Caspase-1 (Homo sapiens) (UniProt P29466); assay: Inhibition of Peptidase, CASP1 (Caspase 1) at 10 µM in the Eurofins-Panlabs enzyme assay (Eurofins_assay_163000); conditions: Compound concentration 10.0 uM
[4] = molecular target: Interstitial collagenase (Homo sapiens) (UniProt P03956); assay: Inhibition of Peptidase, Matrix Metalloproteinase-1 (MMP-1) at 10 µM in the Eurofins-Panlabs enzyme assay (Eurofins_assay_114110); conditions: Compound concentration 10.0 uM
[5] = molecular target: C-X-C chemokine receptor type 2 (Homo sapiens) (UniProt P25025); assay: Inhibition of Chemokine CXCR2 (IL-8RB) at 10 µM in the Eurofins-Panlabs radioligand binding assay (Eurofins_assay_244500); conditions: Compound concentration 10.0 uM
[6] = molecular target: Adenosine Transporter (Cavia porcellus) (UniProt H0V4R7+H0UUG1+H0V3Z5); assay: Inhibition of Transporter, Adenosine at compound concentration of 10.0 uM in the Eurofins-Panlabs radioligand binding assay (Eurofins_assay_202000); format: protein assay; set-up: ligand concentration 0.5 nM, non-specific ligand with concentration 5 uM Nitrobenzylthioinosine, incubation time 30 min, incubation temperature 25 C; conditions: Compound concentration 10.0 uM
Caspase-8 (Homo sapiens) = Caspase-8 (Homo sapiens) (UniProt Q14790); assay: Peptidase, CASP8 (Caspase 8) Eurofins-Panlabs enzyme assay; conditions: Compound concentration 10.0 uM
Bos taurus [7] = species: Bos taurus; assay: Protein Serine/Threonine Kinase, PKA, Non-Selective Eurofins-Panlabs enzyme assay; format: protein-complex assay; set-up: substrate with concentration 370 µg/mL Histone Type III-S, incubation time 15 min, incubation temperature 25 °C; conditions: Compound concentration 100.0 uM
[8] = molecular target: Nociceptin receptor (Homo sapiens) (UniProt P41146); assay: Orphanin ORL1 Eurofins-Panlabs radioligand binding assay; conditions: Compound concentration 10.0 uM
[9] = molecular target: Prostaglandin E2 receptor EP3 subtype (Homo sapiens) (UniProt P43115); assay: Prostanoid EP3 Eurofins-Panlabs radioligand binding assay; set-up: ligand concentration 0.5 nM, non-specific ligand with concentration 10 µM Prostaglandin EŽ2 (PGE2), incubation time 60 min, incubation temperature 25 °C; conditions: Compound concentration 10.0 uM
[10] = molecular target: High affinity choline transporter 1 (Homo sapiens) (UniProt Q9GZV3); assay: Transporter, Choline Eurofins-Panlabs radioligand binding assay; set-up: ligand concentration 0.75 nM; conditions: Rattus norvegicus; Compound concentration 10.0 uM
[11] = molecular target: Polyunsaturated fatty acid lipoxygenase ALOX12 (Homo sapiens) (UniProt P18054); assay: Lipoxygenase 12-LO Eurofins-Panlabs enzyme assay; set-up: substrate with concentration; conditions: Compound concentration 10.0 uM
[12] = molecular target: Neprilysin (Homo sapiens) (UniProt P08473); assay: Peptidase, Metalloproteinase, Neutral Endopeptidase Eurofins-Panlabs enzyme assay; conditions: Compound concentration 10.0 uM
Bos taurus [13] = species: Bos taurus; assay: Phosphodiesterase PDE6 Eurofins-Panlabs enzyme assay; set-up: substrate with concentration [3H] cGMP + cGMP, incubation time 20 min, incubation temperature 25 °C; conditions: Compound concentration 100.0 uM
[14] = molecular target: Bombesin receptor (Rattus norvegicus) (UniProt P52500+P24053+Q8K418); assay: Bombesin, Non-Selective Eurofins-Panlabs radioligand binding assay; format: protein assay; conditions: Compound concentration 10.0 uM
[15] = molecular target: Glutamate NMDA receptor; GRIN1/GRIN2A (Homo sapiens) (UniProt Q05586+Q12879); assay: NMDA-NR1a/NR2a Eurofins-Panlabs radioligand binding assay; format: protein-complex assay; conditions: Compound concentration 10.0 uM
[16] = molecular target: Prostaglandin E2 receptor EP1 subtype (Homo sapiens) (UniProt P34995); assay: Prostanoid EP1 Eurofins-Panlabs radioligand binding assay; conditions: Compound concentration 10.0 uM
[17] = molecular target: Somatostatin receptor type 1 (Homo sapiens) (UniProt P30872); assay: Somatostatin sst1 Eurofins-Panlabs radioligand binding assay; set-up: ligand concentration 0.1 nM; conditions: Compound concentration 10.0 uM
[18] = molecular target: Somatostatin receptor type 4 (Homo sapiens) (UniProt P31391); assay: Somatostatin sst4 Eurofins-Panlabs radioligand binding assay; set-up: ligand concentration 0.1 nM, non-specific ligand with concentration 1 µM Somatostatin-14, incubation time 45 min, incubation temperature 25 °C; conditions: Compound concentration 10.0 uM
Rattus norvegicus = species: Rattus norvegicus; assay: Potassium Channel [KA] Eurofins-Panlabs radioligand binding assay; set-up: ligand concentration 0.01 nM; conditions: Compound concentration 10.0 uM
[19] = molecular target: Adenosine receptor A2a (Homo sapiens) (UniProt P29274); conditions: Compound concentration 10.0 uM
[20] = molecular target: D(2) dopamine receptor (Homo sapiens) (UniProt P14416); conditions: Compound concentration 10.0 uM
[21] = molecular target: Endothelin-1 receptor (Homo sapiens) (UniProt P25101); conditions: Compound concentration 10.0 uM
[22] = molecular target: Glutamate NMDA receptor (Rattus norvegicus) (UniProt P35439+Q00959+Q00960+Q00961+Q62645+Q8VHN2+Q9R1M7); conditions: Compound concentration 10.0 uM
[23] = molecular target: Histamine H2 receptor (Homo sapiens) (UniProt P25021); conditions: Compound concentration 10.0 uM
[24] = molecular target: Mu-type opioid receptor (Homo sapiens) (UniProt P35372); conditions: Compound concentration 10.0 uM
[25] = molecular target: 5-hydroxytryptamine receptor 2B (Homo sapiens) (UniProt P41595); conditions: Compound concentration 10.0 uM
[26] = molecular target: Acetylcholinesterase (Homo sapiens) (UniProt P22303); conditions: Compound concentration 10.0 uM
[27] = molecular target: Glutamate receptor 2 (Homo sapiens) (UniProt P42262); conditions: Rattus norvegicus; Compound concentration 10.0 uM
[28] = molecular target: Synaptic vesicular amine transporter (Homo sapiens) (UniProt Q05940); conditions: Oryctolagus cuniculus; Compound concentration 10.0 uM
[29] = molecular target: Tyrosine-protein kinase Blk (Homo sapiens) (UniProt P51451); conditions: Compound concentration 1000.0 nM
[30] = molecular target: D(2) dopamine receptor (Homo sapiens) (UniProt P14416); conditions: Compound concentration 10.0 uM; remark: listed apart in the source
[31] = molecular target: Delta-type opioid receptor (Homo sapiens) (UniProt P41143); conditions: Compound concentration 10.0 uM

Sequence of D(2) dopamine receptor (Homo sapiens) (P14416 whole entry): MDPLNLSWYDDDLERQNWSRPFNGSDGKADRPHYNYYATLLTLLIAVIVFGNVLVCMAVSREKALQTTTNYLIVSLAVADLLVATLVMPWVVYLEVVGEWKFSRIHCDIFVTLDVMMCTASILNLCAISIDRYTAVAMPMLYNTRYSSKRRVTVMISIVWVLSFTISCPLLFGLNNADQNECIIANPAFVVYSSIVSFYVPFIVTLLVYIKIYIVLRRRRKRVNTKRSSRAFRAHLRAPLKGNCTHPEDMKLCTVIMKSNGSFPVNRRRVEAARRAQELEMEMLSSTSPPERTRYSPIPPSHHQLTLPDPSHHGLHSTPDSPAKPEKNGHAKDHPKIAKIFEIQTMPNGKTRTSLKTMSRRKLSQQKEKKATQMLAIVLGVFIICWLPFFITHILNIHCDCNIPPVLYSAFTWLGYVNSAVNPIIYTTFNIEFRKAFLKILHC
Sequence of 5-hydroxytryptamine receptor 2B (Homo sapiens) (P41595 whole entry): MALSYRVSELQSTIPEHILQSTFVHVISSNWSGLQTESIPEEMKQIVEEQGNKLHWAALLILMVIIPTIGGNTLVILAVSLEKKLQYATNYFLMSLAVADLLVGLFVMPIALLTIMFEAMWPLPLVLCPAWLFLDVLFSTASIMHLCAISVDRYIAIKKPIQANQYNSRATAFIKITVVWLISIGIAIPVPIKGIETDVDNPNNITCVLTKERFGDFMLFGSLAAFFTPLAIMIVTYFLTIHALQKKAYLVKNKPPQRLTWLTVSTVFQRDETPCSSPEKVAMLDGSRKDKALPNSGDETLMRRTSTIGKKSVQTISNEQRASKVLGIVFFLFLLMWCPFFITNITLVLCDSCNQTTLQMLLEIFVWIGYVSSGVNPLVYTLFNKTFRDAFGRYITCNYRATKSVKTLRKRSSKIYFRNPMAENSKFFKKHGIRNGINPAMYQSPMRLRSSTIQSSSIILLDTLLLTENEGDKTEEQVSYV
Sequence of Prostaglandin E2 receptor EP3 subtype (Homo sapiens) (P43115 whole entry): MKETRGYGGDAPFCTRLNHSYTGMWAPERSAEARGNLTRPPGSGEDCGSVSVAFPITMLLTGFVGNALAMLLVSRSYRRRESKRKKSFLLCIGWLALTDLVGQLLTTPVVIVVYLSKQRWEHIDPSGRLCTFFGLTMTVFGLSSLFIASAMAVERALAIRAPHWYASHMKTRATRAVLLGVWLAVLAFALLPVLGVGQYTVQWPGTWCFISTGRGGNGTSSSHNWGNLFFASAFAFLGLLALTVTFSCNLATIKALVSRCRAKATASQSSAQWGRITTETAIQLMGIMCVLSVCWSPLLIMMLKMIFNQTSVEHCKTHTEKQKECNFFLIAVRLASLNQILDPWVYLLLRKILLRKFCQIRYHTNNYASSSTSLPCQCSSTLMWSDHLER
Sequence of Adenosine receptor A2a (Homo sapiens) (P29274 whole entry): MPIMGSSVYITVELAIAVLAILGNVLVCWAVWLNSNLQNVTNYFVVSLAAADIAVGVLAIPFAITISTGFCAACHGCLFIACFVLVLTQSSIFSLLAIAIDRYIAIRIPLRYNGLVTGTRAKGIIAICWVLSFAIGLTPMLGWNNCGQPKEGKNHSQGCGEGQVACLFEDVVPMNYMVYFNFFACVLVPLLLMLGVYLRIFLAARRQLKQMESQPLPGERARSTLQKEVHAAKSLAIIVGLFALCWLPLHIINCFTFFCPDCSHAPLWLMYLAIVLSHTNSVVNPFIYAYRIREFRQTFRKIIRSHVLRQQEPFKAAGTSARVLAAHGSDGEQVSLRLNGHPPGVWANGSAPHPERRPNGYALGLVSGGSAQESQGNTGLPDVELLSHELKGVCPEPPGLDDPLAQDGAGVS
Sequence of Voltage-dependent N-type calcium channel subunit alpha-1B (Homo sapiens) (Q00975 whole entry, looked up): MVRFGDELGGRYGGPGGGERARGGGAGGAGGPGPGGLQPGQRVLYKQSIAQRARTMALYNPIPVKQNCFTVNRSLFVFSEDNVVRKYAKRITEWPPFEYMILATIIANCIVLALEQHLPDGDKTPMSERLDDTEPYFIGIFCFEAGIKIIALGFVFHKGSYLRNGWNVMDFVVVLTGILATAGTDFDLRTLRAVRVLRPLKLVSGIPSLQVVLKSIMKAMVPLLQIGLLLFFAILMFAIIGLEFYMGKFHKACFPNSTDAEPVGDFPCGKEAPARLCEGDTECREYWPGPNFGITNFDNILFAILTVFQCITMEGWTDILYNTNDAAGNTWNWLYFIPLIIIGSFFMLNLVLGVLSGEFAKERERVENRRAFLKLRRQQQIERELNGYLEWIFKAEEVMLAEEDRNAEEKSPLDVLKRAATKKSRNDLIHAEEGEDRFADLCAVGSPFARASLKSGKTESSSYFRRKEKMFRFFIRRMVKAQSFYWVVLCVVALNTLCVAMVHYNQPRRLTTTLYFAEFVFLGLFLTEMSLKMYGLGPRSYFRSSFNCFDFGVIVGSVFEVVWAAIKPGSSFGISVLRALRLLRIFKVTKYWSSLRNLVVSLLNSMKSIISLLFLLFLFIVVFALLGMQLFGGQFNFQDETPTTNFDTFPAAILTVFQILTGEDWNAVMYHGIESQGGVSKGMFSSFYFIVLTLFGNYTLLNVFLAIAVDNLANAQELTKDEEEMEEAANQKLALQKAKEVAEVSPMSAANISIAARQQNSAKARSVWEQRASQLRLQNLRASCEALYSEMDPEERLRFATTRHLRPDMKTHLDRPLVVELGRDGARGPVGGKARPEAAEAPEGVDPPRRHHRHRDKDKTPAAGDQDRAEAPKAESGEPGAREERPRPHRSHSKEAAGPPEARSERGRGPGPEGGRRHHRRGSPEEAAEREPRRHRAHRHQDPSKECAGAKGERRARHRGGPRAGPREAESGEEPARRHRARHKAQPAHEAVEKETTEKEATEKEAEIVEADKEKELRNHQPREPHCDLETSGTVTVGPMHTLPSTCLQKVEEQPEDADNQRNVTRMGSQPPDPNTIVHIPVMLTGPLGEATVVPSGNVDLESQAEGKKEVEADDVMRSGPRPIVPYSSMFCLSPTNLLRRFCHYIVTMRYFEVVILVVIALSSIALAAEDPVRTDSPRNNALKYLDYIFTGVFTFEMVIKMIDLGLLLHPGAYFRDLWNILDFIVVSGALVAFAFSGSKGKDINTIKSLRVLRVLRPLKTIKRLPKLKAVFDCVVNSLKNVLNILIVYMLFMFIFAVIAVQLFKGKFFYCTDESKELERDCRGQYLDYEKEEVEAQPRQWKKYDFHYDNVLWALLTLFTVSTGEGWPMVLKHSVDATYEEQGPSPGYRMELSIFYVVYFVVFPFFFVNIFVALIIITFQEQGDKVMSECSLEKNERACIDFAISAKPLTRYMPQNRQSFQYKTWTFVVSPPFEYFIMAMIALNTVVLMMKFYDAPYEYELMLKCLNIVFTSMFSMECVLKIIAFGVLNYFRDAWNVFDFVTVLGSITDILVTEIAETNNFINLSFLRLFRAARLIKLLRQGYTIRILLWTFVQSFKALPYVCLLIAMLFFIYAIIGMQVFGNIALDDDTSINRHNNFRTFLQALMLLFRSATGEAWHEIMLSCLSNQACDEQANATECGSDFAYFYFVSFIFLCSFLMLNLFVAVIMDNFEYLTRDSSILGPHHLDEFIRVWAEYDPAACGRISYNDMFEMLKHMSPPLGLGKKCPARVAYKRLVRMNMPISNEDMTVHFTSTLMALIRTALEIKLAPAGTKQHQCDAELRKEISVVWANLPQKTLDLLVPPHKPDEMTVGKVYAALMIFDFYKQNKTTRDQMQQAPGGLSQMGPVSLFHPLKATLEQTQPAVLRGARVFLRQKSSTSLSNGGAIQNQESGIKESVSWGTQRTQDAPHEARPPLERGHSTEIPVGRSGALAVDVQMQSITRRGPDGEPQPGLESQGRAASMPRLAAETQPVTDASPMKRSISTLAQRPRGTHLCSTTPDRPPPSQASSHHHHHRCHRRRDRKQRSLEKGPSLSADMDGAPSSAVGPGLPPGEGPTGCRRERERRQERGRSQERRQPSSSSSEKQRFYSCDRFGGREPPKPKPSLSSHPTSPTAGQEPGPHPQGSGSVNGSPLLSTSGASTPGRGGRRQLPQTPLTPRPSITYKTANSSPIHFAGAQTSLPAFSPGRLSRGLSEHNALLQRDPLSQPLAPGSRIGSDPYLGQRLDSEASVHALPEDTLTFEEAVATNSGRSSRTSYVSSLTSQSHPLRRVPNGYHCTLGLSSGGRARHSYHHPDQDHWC
Sequence of Interstitial collagenase (Homo sapiens) (P03956 whole entry): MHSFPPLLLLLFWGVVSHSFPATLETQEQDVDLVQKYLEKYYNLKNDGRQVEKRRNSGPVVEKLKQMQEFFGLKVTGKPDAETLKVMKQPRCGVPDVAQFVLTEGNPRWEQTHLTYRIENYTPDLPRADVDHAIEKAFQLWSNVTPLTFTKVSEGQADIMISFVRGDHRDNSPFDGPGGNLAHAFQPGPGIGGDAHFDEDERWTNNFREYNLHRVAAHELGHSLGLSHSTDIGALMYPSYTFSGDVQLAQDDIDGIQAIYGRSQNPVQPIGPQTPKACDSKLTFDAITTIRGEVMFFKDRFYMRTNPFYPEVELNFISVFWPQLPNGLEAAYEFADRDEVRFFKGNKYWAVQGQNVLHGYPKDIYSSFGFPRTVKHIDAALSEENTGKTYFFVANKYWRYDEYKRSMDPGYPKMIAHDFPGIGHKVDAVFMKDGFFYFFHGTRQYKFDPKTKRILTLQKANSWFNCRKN
Sequence of Histamine H2 receptor (Homo sapiens) (P25021 whole entry): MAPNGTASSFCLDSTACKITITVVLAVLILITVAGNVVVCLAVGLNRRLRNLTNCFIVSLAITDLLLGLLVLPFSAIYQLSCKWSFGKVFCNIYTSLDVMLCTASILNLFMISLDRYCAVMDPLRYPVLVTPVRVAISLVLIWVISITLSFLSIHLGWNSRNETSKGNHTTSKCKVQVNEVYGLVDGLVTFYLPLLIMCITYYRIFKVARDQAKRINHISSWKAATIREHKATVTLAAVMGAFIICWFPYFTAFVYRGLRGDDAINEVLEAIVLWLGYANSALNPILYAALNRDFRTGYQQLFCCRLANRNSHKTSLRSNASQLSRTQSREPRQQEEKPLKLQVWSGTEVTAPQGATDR

N#CC1(c2ccccn2)CCN(Cc2cc(C(=O)O)c(=O)n3ccccc23)CC1 [MSD-M1PAM]
inactive: inhibition [1] -3% | inhibition [2] 7% | inhibition [3] -5% | inhibition (Caspase-1 (Homo sapiens)) 7% | inhibition [4] 15% | inhibition [5] 0% | inhibition [6] 2% | inhibition (Caspase-8 (Homo sapiens)) 9% | inhibition (Bos taurus [7]) 24% | inhibition [8] 14% | inhibition [9] 3% | inhibition [10] 29% | inhibition [11] 13% | inhibition [12] 3% | inhibition (Bos taurus [13]) 5% | inhibition [14] 6% | inhibition [15] -6% | inhibition [16] 14% | inhibition [17] -3% | inhibition [18] -1% | inhibition (Rattus norvegicus) 17% | inhibition [19] 6% | inhibition [20] -9% | inhibition [21] -1% | inhibition [22] 4% | inhibition [23] -3% | inhibition [24] 0% | inhibition [25] -2% | inhibition [26] 1% | inhibition [27] -7% | inhibition [28] 9%

N#CC1(c2ccccn2)CCN(Cc2cc(C(=O)N3CCCC3)c(=O)n3ccccc23)CC1
inactive: residual activity [29] 73% | inhibition [30] -5.66% | inhibition [31] -0.84%
